# According to PubChem BioAssay AID328 (DTP/NCI, 2004):
# “And” between values parts separate entries of the source, which are not always exact repeats. Identical values can stand only once. Inconclusive results and toxic doses are left out.
# System: BDF1 mice, P388 leukemia ip, median survival T/C
# Experiment: NCI In Vivo Anticancer Drug Screen. Data for tumor model P388 Leukemia (intraperitoneal) in B6D2F1 (BDF1) mice
# Conditions: endpoint: median survival time, higher = longer survival
# How it was run: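 Compound-treated tumour-bearing mice were compared with vehicle-treated controls. Survival was recorded, and the value is the treated-group measurement divided by the control-group measurement (T/C).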
# [1] = dose: 50.0 mg/kg/injection, schedule: Q04DX003 (ip), vehicle: saline
# [2] = dose: 50.0 mg/kg/injection, schedule: Q01DX009 (ip), vehicle: saline with Tween-80
# [3] = dose: 100.0 mg/kg/injection, schedule: Q01DX009 (ip), vehicle: saline with Tween-80
# [4] = dose: 200.0 mg/kg/injection, schedule: Q01DX009 (ip), vehicle: saline with Tween-80
# [5] = dose: 100.0 mg/kg/injection, schedule: Q04DX003 (ip), vehicle: saline with Tween-80
# [6] = dose: 200.0 mg/kg/injection, schedule: Q04DX003 (ip), vehicle: saline with Tween-80
# [7] = dose: 400.0 mg/kg/injection, schedule: Q04DX003 (ip), vehicle: saline with Tween-80
# [8] = dose: 100.0 mg/kg/injection, schedule: Q01DX009 (ip), vehicle: saline
# [9] = dose: 100.0 mg/kg/injection, schedule: Q04DX003 (ip), vehicle: saline
structure (smiles),measurement,setting,value
CC1=CC(=O)C(CO)=CC1=O,T/C,"dose: 0.38 mg/kg/injection, schedule: Q01DX009 (ip), vehicle: saline with Tween-80",105 % of control
same,T/C,"dose: 0.75 mg/kg/injection, schedule: Q01DX009 (ip), vehicle: saline with Tween-80",108 % of control
same,T/C,"dose: 1.5 mg/kg/injection, schedule: Q01DX009 (ip), vehicle: saline with Tween-80",110 % of control
same,T/C,"dose: 3.0 mg/kg/injection, schedule: Q01DX009 (ip), vehicle: saline with Tween-80",115 % of control
same,T/C,"dose: 6.0 mg/kg/injection, schedule: Q01DX009 (ip), vehicle: saline with Tween-80",107 % of control
O=C(O)c1c(Cl)c(Cl)c(Cl)c(Cl)c1C(=O)O.O=C(O)c1c(Cl)c(Cl)c(Cl)c(Cl)c1C(=O)O.[Pt],T/C,"dose: 25.0 mg/kg/injection, schedule: Q04DX003 (ip), vehicle: saline sonified",115 % of control
same,T/C,"dose: 50.0 mg/kg/injection, schedule: Q04DX003 (ip), vehicle: saline sonified",120 % of control
CS(=O)(=O)N(CC(=O)O)Cc1ccc(Cl)c(Cl)c1,T/C,"dose: 25.0 mg/kg/injection, schedule: Q04DX003 (ip), vehicle: other",102 % of control
same,T/C,"dose: 50.0 mg/kg/injection, schedule: Q04DX003 (ip), vehicle: other",102 % of control
same,T/C,"dose: 100.0 mg/kg/injection, schedule: Q04DX003 (ip), vehicle: other",93 % of control
same,T/C,"dose: 200.0 mg/kg/injection, schedule: Q04DX003 (ip), vehicle: other",106 % of control and 107 % of control
same,T/C,"dose: 300.0 mg/kg/injection, schedule: Q04DX003 (ip), vehicle: other",95 % of control
Nc1nc(=S)c2ncn(C3OC(CO)C(O)C3O)c2[nH]1 (stereo not drawn),T/C,"dose: 1.0 mg/kg/injection, schedule: Q01DX010 (ip), vehicle: saline",118 % of control
same,T/C,"dose: 2.0 mg/kg/injection, schedule: Q01DX010 (ip), vehicle: saline",118 % of control
same,T/C,"dose: 4.0 mg/kg/injection, schedule: Q01DX010 (ip), vehicle: saline",100 % of control and 109 % of control
same,T/C,"dose: 8.0 mg/kg/injection, schedule: Q01DX010 (ip), vehicle: saline",90 % of control and 100 % of control
same,T/C,[1],118 % of control
same,T/C,"dose: 132.0 mg/kg/injection, schedule: Q04DX003 (ip), vehicle: saline with Tween-80",122 % of control
same,T/C,"dose: 200.0 mg/kg/injection, schedule: Q01DX009 (ip), vehicle: saline",117 % of control
same,T/C,"dose: 300.0 mg/kg/injection, schedule: Q04DX003 (ip), vehicle: saline with Tween-80",122 % of control
same,T/C,"dose: 400.0 mg/kg/injection, schedule: Q01DX009 (ip), vehicle: saline",111 % of control
COCCOCCN1CCN(CCCN2c3ccccc3Sc3ccc(C(F)(F)F)cc32)CC1,T/C,"dose: 12.5 mg/kg/injection, schedule: Q04DX003 (ip), vehicle: saline",112 % of control
same,T/C,"dose: 25.0 mg/kg/injection, schedule: Q04DX003 (ip), vehicle: saline",108 % of control
CCOC(=O)c1c(C(=O)OCC)c(C)n(NC(=S)NC)c1C,T/C,"dose: 75.0 mg/kg/injection, schedule: Q01DX009 (ip), vehicle: saline with Tween-80",103 % of control
same,T/C,"dose: 150.0 mg/kg/injection, schedule: Q01DX009 (ip), vehicle: saline with Tween-80",89 % of control
same,T/C,"dose: 300.0 mg/kg/injection, schedule: Q01DX009 (ip), vehicle: saline with Tween-80",93 % of control
CN1Cc2c(ccc3c2OCO3)[C@@H]2[C@H](O)Cc3cc4c(cc3[C@@H]21)OCO4,T/C,"dose: 50.0 mg/kg/injection, schedule: Q01DX010 (ip), vehicle: saline",100 % of control
same,T/C,"dose: 100.0 mg/kg/injection, schedule: Q01DX010 (ip), vehicle: saline",100 % of control
Cc1ccc2nc(C)n(C)c(=O)c2c1,T/C,[2],98 % of control
same,T/C,[3],91 % of control
same,T/C,[4],92 % of control
Cc1ccc(S(=O)(=O)CC([Se]C#N)c2ccccc2)cc1 (stereo not drawn),T/C,[5],105 % of control
same,T/C,[6],92 % of control
same,T/C,[7],89 % of control
Cc1ccc2c(ccc(C)[n+]2C)c1,T/C,"dose: 67.0 mg/kg/injection, schedule: Q01DX009 (ip), vehicle: saline",183 % of control
same,T/C,[8],150 % of control
CN(C)C(=S)/N=c1\ss/c(=N\C(=S)N(C)C)n1-c1ccccc1,T/C,[2],100 % of control
same,T/C,[3],95 % of control
same,T/C,[4],95 % of control
CCC(CC)OCCN1CCN(CCCN2c3ccccc3Sc3ccc(C(F)(F)F)cc32)CC1,T/C,"dose: 5.0 mg/kg/injection, schedule: Q04DX003 (ip), vehicle: saline with Tween-80",103 % of control and 104 % of control
same,T/C,"dose: 10.0 mg/kg/injection, schedule: Q04DX003 (ip), vehicle: saline with Tween-80",108 % of control and 116 % of control
same,T/C,"dose: 20.0 mg/kg/injection, schedule: Q04DX003 (ip), vehicle: saline with Tween-80",122 % of control
Cc1ccc(S(=O)(=O)N(C)c2ccc(C#N)c(Cl)c2Cl)cc1,T/C,[5],90 % of control
same,T/C,[6],86 % of control
same,T/C,[7],90 % of control
CCCN(CCC)CCCOC(=O)c1ccc(N)cc1,T/C,"dose: 25.0 mg/kg/injection, schedule: Q01DX009 (ip), vehicle: saline",100 % of control
same,T/C,"dose: 50.0 mg/kg/injection, schedule: Q01DX009 (ip), vehicle: saline",96 % of control
same,T/C,[1],100 % of control
same,T/C,[8],89 % of control
same,T/C,[9],95 % of control
CCOC(=O)Oc1c(OC)cc(C(=O)O[C@@H]2C[C@@H]3CN4CCc5c([nH]c6cc(OC)ccc56)[C@H]4C[C@@H]3[C@H](C(=O)OC)[C@H]2OC)cc1OC,T/C,"dose: 25.0 mg/kg/injection, schedule: Q01DX009 (ip), vehicle: saline with Tween-80",100 % of control
CC(C)C(=O)c1ccco1,T/C,"dose: 6.25 mg/kg/injection, schedule: Q04DX003 (ip), vehicle: saline with Tween-80",95 % of control
same,T/C,"dose: 12.5 mg/kg/injection, schedule: Q04DX003 (ip), vehicle: saline with Tween-80",100 % of control
same,T/C,"dose: 25.0 mg/kg/injection, schedule: Q04DX003 (ip), vehicle: saline with Tween-80",90 % of control
COc1cccc2c1CCC1=C2CC=C2CC3(CCC21C)OCCO3 (stereo not drawn),T/C,"dose: 5.0 mg/kg/injection, schedule: Q04DX003 (sc), vehicle: steriod suspending solution",109 % of control
same,T/C,"dose: 10.0 mg/kg/injection, schedule: Q04DX003 (sc), vehicle: steriod suspending solution",104 % of control
same,T/C,"dose: 20.0 mg/kg/injection, schedule: Q04DX003 (sc), vehicle: steriod suspending solution",118 % of control
O=[P+](O)C(O)c1ccccc1 (stereo not drawn),T/C,[9],100 % of control
same,T/C,"dose: 200.0 mg/kg/injection, schedule: Q04DX003 (ip), vehicle: saline",108 % of control
same,T/C,"dose: 400.0 mg/kg/injection, schedule: Q04DX003 (ip), vehicle: saline",91 % of control
CC1(C)COC(c2ccccc2)=N1,T/C,"dose: 100.0 mg/kg/injection, schedule: Q01DX001 (ip), vehicle: saline sonified",100 % of control
same,T/C,"dose: 200.0 mg/kg/injection, schedule: Q01DX001 (ip), vehicle: saline sonified",100 % of control
same,T/C,"dose: 400.0 mg/kg/injection, schedule: Q01DX001 (ip), vehicle: saline sonified",110 % of control
CC(=O)OC(C(=O)c1ccccc1)c1ccccc1 (stereo not drawn),T/C,"dose: 100.0 mg/kg/injection, schedule: Q04DX003 (ip), vehicle: Klucel (hydroxypropylcellulose) (HPC)",95 % of control
same,T/C,"dose: 200.0 mg/kg/injection, schedule: Q04DX003 (ip), vehicle: Klucel (hydroxypropylcellulose) (HPC)",104 % of control
same,T/C,"dose: 400.0 mg/kg/injection, schedule: Q04DX003 (ip), vehicle: Klucel (hydroxypropylcellulose) (HPC)",108 % of control
CCOC(=O)Cn1c(C(F)(F)F)nc2nc(Cl)c(Cl)nc21,T/C,[5],110 % of control
same,T/C,[6],110 % of control
same,T/C,[7],110 % of control
C=CCOc1ccccc1N/N=C(\Cl)C(=O)OCC,T/C,[2],119 % of control
COC(=O)C12N=NN(c3ccccc3)C1(C(=O)OC)C1CCC2C1 (stereo not drawn),T/C,[5],100 % of control
same,T/C,[6],100 % of control
same,T/C,[7],91 % of control
